For series [1], the system named is vascular inflammation in high-glucose and high-fat zebrafish. As to the kind of experiment: Regressive effect on vascular inflammation in high-glucose and high-fat zebrafish (Example 9). The format is in vivo. Here is the method: Experimental method: 360 tails of 5 dpf macrophage fluorescent zebrafish were randomly selected and placed in beakers with 30 tails in each beaker, compound (1), compound (3), and compound (5) were given intravenously, and the positive control group was given atorvastatin calcium by dissolving it in water at a concentration of 30 μg/mL, while the normal control group (fish farming water-treated zebrafish) and the model control group were set up, and the volume of each beaker (experimental group) was 25 mL. Except for the normal control group, all other groups were given high-lipids and high-sucrose feed by dissolving it in water. Compound (1), compound (3) and compound (5) group were co-treated with high-lipids and high-sucrose feed for 30 h. The treatment was carried out up to 9 dpf, and 10 zebrafish were randomly selected from each experimental group to collect the intensity of the macrophage fluorescence within the tail vein and around the tail vein of the zebrafish under fluorescence microscope, and the results of the statistical analysis were used to evaluate the regressive effect of compound (1), compound (3), compound (5) on zebrafish vascular inflammation in the high sugar and high fat model.

For series [2], the system named is rats with focal cerebral ischemia (MCAO)/reperfusion. As to the kind of experiment: Therapeutic administration, cerebral ischemia-reperfusion injury MCAO/R in rats (Example 7). As to conditions: 6 mg/kg i.v. once 1 h after reperfusion. The format is in vivo, rat. Here is the method:
Experimental method: SD rats were randomly divided into 11 groups, including pseudosurgery group, a model control group, positive control drug edaravone via intravenous injection (6 mg/kg, i.v.) group, positive control drug butylphthalide injection via intravenous injection (5 mg/kg, i.v.) group, compound (1) high-dose (24 mg/kg, i.v.), medium-dose (12 mg/kg, i.v.), low-dose (6 mg/kg, i.v.) via intravenous injection group, positive drug butylphthalide soft capsule via intragastric administration (60 mg/kg, i.g.) group, and compound via intragastric administration at (1) high-dose (60 mg/kg, i.g.), medium-dose (30 mg/kg, i.g.), low-dose (15 mg/kg, i.g.) group. A middle cerebral artery occlusion (MCAO) model for cerebral ischemia-reperfusion of male rats was prepared using the internal carotid suture-occluded method with an ischemic time of 90 min followed by reperfusion. Injection and oral administration for once were performed 1 h after reperfusion, and neurobehavioral scoring was performed on rats after 24 h to determine neurological function in rats; the cerebral infarction rate and cerebral water content of rats were determined by 2,3,5-triphenyltetrazolium chloride (TTC) staining.

Series [3] concerns Erastin-induced neuronal cells. As to the kind of experiment: Cell viability (CCK8) of Erastin-induced neuronal cells (Example 8). The format is cell-based, rat. As to conditions: for Cell viability (%): Erastin 50 μM. Here is the method:
(§1) Experimental method: Primary neuron cells were incubated in a medium containing Erastin (final concentration of 50 μM) for 24 hours, and then incubated in a medium containing different concentrations of the test drug and Erastin (final concentration of 50 μM) for another 24 hours. After incubation, Real time PCR was used to detect mRNA expression of GPX4 in each group of cells, CCK8 assay was used to detect cell viability in each group of cells, C11-BODIPY probe method was used to detect intracellular lipid ROS levels in each group of cells, and PGSK probe method was used to detect iron content in cells.
(§2) The experimental data were expressed in means±SD, and statistical differences between groups were determined using one-way ANOVA and Tukey's test, with p-values less than 0.05 considered significant.
After incubation, the CCK8 experiment was used to detect the cell viability of each group of cells. The results were presented as Mean±SD. Compared with control group, ***p<0.0001. Compared with model control group, ^#P<0.05, ^##P<0.01.

For series [4], the system named is vascular endothelial injury induced thrombosis model in zebrafish. As to the kind of experiment: Preventative effect on vascular endothelial injury induced thrombosis, ponatinib zebrafish model (Example 1). The format is in vivo. To be noted: 4.00 ng/tail injected. Here is the method:
Experimental method: 420 tails of 5 dpf wild type AB strain zebrafish were randomly selected and placed in a six-well plate, with 30 fish per well (experimental group). The fish were injected with compound (1), compound (2), compound (3), compound (4), compound (5), compound (6), compound (7), compound (8), compound (9), compound (10), and compound (11) (structural formula shown in Table 1) at a dose of 4.00 ng/tail, with positive control drug acetylsalicylic acid being administered by dissolving it in water at a concentration of 30.0 µg/mL. Normal control group (i.e. zebrafish treated with standard diluted water) and model control group were set up, with a capacity of 3 mL per well (experimental group). Except for normal control group, the remaining experimental groups were all given Punatinib by dissolving it in water to induce vascular endothelial injury induced thrombosis model in zebrafish. The zebrafish were stained with o-dianisidine after co-treatment with ponatinib and samples for a period of time under incubation conditions at 28° C.
After staining, 10 zebrafish in each group were randomly selected and photographed under the microscope, and the intensity of cardiac erythrocyte staining in zebrafish was analyzed using NIS-Elements D 3.20 advanced image-processing software, and the samples were evaluated for the preventative effect on vascular endothelial injury induced thrombosis by the statistical results of cardiac erythrocyte staining intensity.
The preventative effect on thrombosis is calculated as follows: […]
Statistical analysis was performed using SPSS software, and p<0.05 indicates significant differences

In series [5] the test system is iron content in Erastin-induced neuronal cells. As to the kind of experiment: Iron content (PGSK probe) in Erastin-induced neuronal cells (Example 8). The format is cell-based, rat. As to conditions: Erastin 50 μM. Here is the method: as §1, §2
After incubation, the PGSK probe method was used to detect the intracellular iron content. The results were presented as Mean±SD. Compared with the control group, ***p<0.0001; Compared with the model group, #p<0.05, ##p<0.01.

Series [6] relates to lipid ROS levels in Erastin-induced nerve cells. As to the kind of experiment: Lipid ROS levels (C11-BODIPY probe) in Erastin-induced nerve cells (Example 8). The format is cell-based, rat. To be noted: Erastin 50 μM. Here is the method: as §1, §2
After incubation, the C11-BODIPY probe method was used to detect the lipid ROS levels in each group of cells. The results were presented as Mean±SD. Compared with the control group, ***p<0.0001; compared with the model group, #p<0.05, ##p<0.01.

The test system of series [7] is GPX4 mRNA. As to the kind of experiment: GPX4 mRNA expression (real time PCR) in Erastin-induced neuronal cells (Example 8). The format is cell-based, rat. To be noted: Erastin 50 μM. Here is the method: as §1, §2
After incubation, real time PCR was used to detect the mRNA expression of GPX4 in each group of cells. The results were presented as Mean±SD. Compared with the control group, ***p<0.0001; Compared with the model group, #p<0.05, […].

Marks after values point to notes of the source that are not given here.

As to `CC(C)c1c(C(=O)Nc2ccccc2)c(-c2ccccc2)c(-c2ccc(F)cc2)n1CC[C@@H](O)C[C@@H](O)CC(=O)[O-].CC(C)c1c(C(=O)Nc2ccccc2)c(-c2ccccc2)c(-c2ccc(F)cc2)n1CC[C@@H](O)C[C@@H](O)CC(=O)[O-].[Ca+2]` [Atorvastatin calcium, atorvastatin calcium, reference compound], the “Anti-inflammatory effect (%)” value in series [1] (30 μg/mL in water) is 42*** %. In series [1] (30 μg/mL in water, n = 10), the “Fluorescence intensity of perivascular macrophage (pixels, Mean ± SE)” value is recorded as 106352 ± 6663 pixels.

In the case of `CC1=NN(c2ccccc2)C(=O)C1` [Edaravone, edaravone, reference compound], in series [2], the Behavioral score was determined as 1.62 ± 0.51 and the “Cerebral water content (%)” value was 79.81 ± 1.03 %. The “Cerebral infarction rate (%)” value in series [2] (after 24 h, mean ± SD, n = 8) stood at 10.23 ± 7.87 %.

As to `CC(=O)N[C@H](CSCC1OC2OC3C(CSC[C@@H](NC(C)=O)C(=O)[O-])OC(OC4C(CSC[C@@H](NC(C)=O)C(=O)[O-])OC(OC5C(CSC[C@@H](NC(C)=O)C(=O)[O-])OC(OC6C(CSC[C@@H](NC(C)=O)C(=O)[O-])OC(OC7C(CSC[C@@H](NC(C)=O)C(=O)[O-])OC(OC1C(O)C2O)C(O)C7O)C(O)C6O)C(O)C5O)C(O)C4O)C(O)C3O)C(=O)[O-].[Na+].[Na+].[Na+].[Na+].[Na+].[Na+]` (stereo partly drawn) [Compound (3)], the “Cell viability (%)” value in series [3] (1 μM, 24 h, control = 100, Mean±SD) is recorded as 52.87 ± 2.55%; in series [3] (2.5 μM), 56.6 ± 4.76%; in series [3] (5 μM), 62.52 ± 8.51%; in series [3] (10 μM) it was 66.77 ± 6.27%; in series [3] (20 μM), 73.21 ± 8.1^# %; in series [3] (40 μM), 77.95 ± 6.34^## %. For the same compound, in series [3] (p<0.05), the “Concentration above which cell viability was significantly increased compared with the model group” value is listed as “greater than 10 μM”. For the same compound, in series [4], the “Preventative effect on thrombosis (%)” value was determined as 17%. For the same compound, the “Cardiac erythrocyte staining intensity (pixels, mean ± SE)” value was 3045 ± 219 pixels in series [4] (n = 10) and 3045 pixels in series [4] (n = 10, listed as compound (3)). Further, the “Iron content (PGSK probe)” value in series [5] (1 μM, control = 100, PGSK fluorescence, weaker = more iron) is 56.48 ± 3.32^; in series [5] (2.5 μM), 62.3 ± 7; in series [5] (5 μM), 67.06 ± 11.62; in series [5] (10 μM), 71.61 ± 9.86^; in series [5] (20 μM) it was 76.67 ± 7.25^#; in series [5] (40 μM), 83.81 ± 9.91^##. Further, the “Lipid ROS levels (%)” value in series [6] (1 μM, control = 100, Mean±SD) was 146.56 ± 7.67%; in series [6] (2.5 μM), 141.34 ± 4.22%; in series [6] (5 μM), 136.81 ± 7.9%; in series [6] (10 μM), 132.38 ± 2.23%; in series [6] (20 μM), 125.33 ± 9.79^# %; in series [6] (40 μM), 120.37 ± 10.16^## %. Besides, the “Expression of GPX4 mRNA” value was 0.4359 ± 0.05 in series [7] (1 μM, control about 1.00, Mean±SD); 0.4875 ± 0.01 in series [7] (2.5 μM); 0.5407 ± 0.06 in series [7] (5 μM); 0.6152 ± 0.07^## in series [7] (10 μM); 0.6765 ± 0.07^## in series [7] (20 μM); 0.7421 ± 0.08^## in series [7] (40 μM). Also, the “Anti-inflammatory effect (%)” value in series [1] (11.1 ng/tail intravenous) is recorded as 38*** %; in series [1] (33.3 ng/tail intravenous) it was 36*** %; in series [1] (100 ng/tail intravenous), 36*** %. Besides, the “Fluorescence intensity of perivascular macrophage (pixels, Mean ± SE)” value in series [1] (11.1 ng/tail intravenous) amounted to 113809 ± 7995 pixels; in series [1] (33.3 ng/tail intravenous) it was 118747 ± 6434 pixels; in series [1] (100 ng/tail intravenous) it was 118504 ± 10539 pixels.

Regarding `O=S(=O)(O)CCCCOCC1OC2OC3C(COCCCCS(=O)(=O)O)OC(OC4C(COCCCCS(=O)(=O)O)OC(OC5C(COCCCCS(=O)(=O)O)OC(OC6C(COCCCCS(=O)(=O)O)OC(OC7C(COCCCCS(=O)(=O)O)OC(OC8C(COCCCCS(=O)(=O)O)OC(OC1C(O)C2O)C(O)C8O)C(O)C7O)C(O)C6O)C(O)C5O)C(O)C4O)C(O)C3O` (stereo not drawn) [Compound (11)], the “Preventative effect on thrombosis (%)” value in series [4] is 79%. Besides, the “Cardiac erythrocyte staining intensity (pixels, mean ± SE)” value in series [4] (n = 10) was determined as 4749 ± 12 pixels; in series [4] (n = 10, listed as compound (11)), 4749 pixels.

(Values after patent US20250064886A1, “CARDIOVASCULAR AND CEREBROVASCULAR DRUG AND USE THEREOF” (HANGZHOU ADAMERCK PHARMLABS INC., priority 2021, published 2025).)
